Series [1] relates to washed human platelets. The series is described as follows: LDH assay in washed human platelets. The format is cell-based. Particulars: 10 μM. The source says:
To begin with, potency of aggregation inhibition and estimated the IC50 of Ctkf6f2 on platelet aggregation caused by different agonists was investigated. […] In addition, the effect of Ctkf6f2 in platelet-rich plasma was also investigated. […] Furthermore, concentration-dependent inhibition curve in platelet suspension and platelet-rich plasma could be observed as well from FIG. 3. Moreover, LDH assay in washed human platelets with various Ctkf6f2 concentration used in the following experiments was performed.

Series [2] deals with platelet suspension. The series is described as follows: U46619-stimulated platelet protein tyrosine phosphorylation. The format is cell-based. Particulars: 2.5 μM; U46619 1 μM. The protocol: FIG. 19 Effects of nstpbp5185 on U46619-stimulated protein tyrosine phosphorylation in platelet suspension. Platelets were incubated with nstpbp5185 (2.5 μM) or solvent control for 3 min and then stimulated with U46619 (1 μM) for the times indicated (second, s). Then platelets were lysed in SDS buffer and the lysates separated by SDS-PAGE (7.5%-15% acrylamide gradient) under reducing conditions. After electrophoresis, the proteins were transferred to PVDF membranes, and were incubated with several antiphosphotyrosine mAb before detection by using a peroxidase-linked second Ab and detected by chemiluminescence. Data are representative of three separate experiments.
Given the thromboxane receptor-blocking effect of nstpbp5185, the effect of nstpbp5185 on U46619-stimulated signal transduction in platelets was investigated. Stimulation of thromboxane receptors results in phosphorylation of PLCβ2 and activates downstream signaling pathway PKCα, PI3K, Syk, extracellular signal-regulated kinase (ERK) and focal adhesion kinase. The effect of nstpbp5185 on levels of protein tyrosine phosphorylation was examined in platelet cell lysates in different time course. […] In the presence of nstpbp5185 (2.5 μM), the overall pattern of protein tyrosine phosphorylation of signaling molecules during platelet activation was suppressed, including phospholipase Cβ2 (PLCβ2), FAK, PKCα, PI3-kinase, Syk and ERK.

Series [3] has as its target T1, Thromboxane synthase (Homo sapiens, UniProt P24557).
T1 construct: MDS
T1 sequence (P24557 1-533): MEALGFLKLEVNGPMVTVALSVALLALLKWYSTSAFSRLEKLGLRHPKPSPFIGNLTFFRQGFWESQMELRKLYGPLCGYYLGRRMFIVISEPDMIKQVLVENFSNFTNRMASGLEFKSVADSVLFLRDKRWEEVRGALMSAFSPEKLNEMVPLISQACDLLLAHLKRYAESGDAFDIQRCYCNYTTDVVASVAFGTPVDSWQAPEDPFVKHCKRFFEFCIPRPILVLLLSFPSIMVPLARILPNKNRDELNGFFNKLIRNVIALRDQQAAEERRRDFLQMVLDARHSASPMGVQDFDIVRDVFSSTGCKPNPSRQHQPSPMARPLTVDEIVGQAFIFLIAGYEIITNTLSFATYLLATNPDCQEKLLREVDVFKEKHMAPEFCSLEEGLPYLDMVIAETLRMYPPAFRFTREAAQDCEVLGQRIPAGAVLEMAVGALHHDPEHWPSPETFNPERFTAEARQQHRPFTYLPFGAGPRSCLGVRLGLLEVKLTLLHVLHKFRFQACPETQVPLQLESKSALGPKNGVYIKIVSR
The experiment in a line: Thromboxane synthase activity (Table III comparison). The class given is biochemical. The method, then: These kinases or enzymatic assays were performed by MDS according to the standardized methods

For series [4], the system named is mice. The experiment in a line: OVA-induced asthmatic mice (sensitization and airway challenge). The format is in vivo. The method, then: Mice were divided into groups receiving the following treatments: (1) sham sensitization plus challenge with phosphate buffered saline (PBS) (n=5), (2) sensitization plus challenge with OVA (Sigma A5503; Sigma, St. Louis, Mo.) (n=10), and (3 and 4) sensitization with OVA (i.p.) plus challenge with and nstpbp5185 (10 or 20 mg/kg) (n=6-7). […] Mice were challenged through the airway with 100 μg OVA in 40 μL PBS buffer via intranasal administration (i.n.) days 36, 37 and 38 and AHR induced by methacholine (MCh) were measured at day 39. Animals were sacrificed 24 h after the AHR measurement. The mice were placed in the main chamber of a whole body plethysmograph (Buxco Electronics, Inc., Sharon, Conn., USA) and challenged with aerosolized 0.9% normal saline accompanied by increasing doses of methacholine (6.25-50 mg/ml). Each nebulization lasted for 3 min, and after each nebulization, recordings were taken and averaged for the 3 min. The Penh values were determined, and the data were expressed as Penh values.
Serum were collected and stored at −70° C. after centrifugation (3000 rpm, 10 min). The amount of OVA-specific IgE was determined by ELISA. Briefly, 96-well plates were coated with OVA at 10 μg/well. After the plates were blocked, 100 μl/well of diluted sera was added, and the plates were incubated at room temperature for 2 h or at 4° C. overnight. After incubation, the plates were washed five times with PBS with Tween 20 buffer, the secondary antibody (biotinylated rat anti-mouse IgE; AbD Serotec, Kidlington, UK) was added and plates were incubated for 1 h at room temperature. […] The avidin-horseradish peroxidase was removed by washing with PBS with Tween 20 buffer, and the bound enzyme substrate was detected by adding tetramethylbenzidine reagent (KPL, Gaithersburg, Md., USA). […] Optical density was measured at 450 nm (550 nm was used as a reference filter) in a microplate autoreader (Anthos Reader 2010; Anthos Labtec Instruments GmbH, Salzburg, Austria).

The term IC50 denotes the concentration that inhibits the measured activity by half.

With `Cc1ccc(-c2nc3ccc(F)cc3n2Cc2cccc(F)c2)o1` [Ctkf6f2, 6-fluoro-1-(3-fluorobenzyl)-2-(5-methyl-2-furyl)benzimidazole], the “cytotoxicity to platelets (LDH assay)” value in series [1] is “little cytotoxicity”.

In the case of `Cc1ccc(-c2nc3ccccc3n2Cc2ccccc2)o1` [Example 6, 1-Benzyl-2-(5-methyl-2-furyl)benzimidazole], the “protein tyrosine phosphorylation of signaling molecules (PLCβ2, FAK, PKCα, PI3-kinase, Syk, ERK)” value in series [2] was “suppressed”. Further, the Thromboxane synthase entry in series [3] (Table III arrows) was “↓”. Besides, the half-inhibitory concentration (IC50) in series [3] (read-out: Thromboxane synthase inhibition IC50) was 10 µM. In addition, in series [4] (10 and 20 mg/kg/day), the “cellular infiltration of the airways” value is on record as “reduced”. In addition, the “OVA-specific IgE, IgG2a and IgG1 levels in serum” value in series [4] (10 or 20 mg/kg) is “significant reduction”. Moreover, in series [4] (Group 3 and Group 4 (10 or 20 mg/kg)), the “asthma symptoms after OVA challenge” value is given as “alleviated symptoms”.

These data come from patent publication US20170152245A1 (National Taiwan University, priority 2015, published 2017).
